Where a name gives a salt, the structure may show the parent alone.
Target: T1, human V1b receptor (Homo sapiens, UniProt P47901)
T1 construct: expressed in transfected cells; host or cells: CHO cells
T1 sequence (P47901 1-424): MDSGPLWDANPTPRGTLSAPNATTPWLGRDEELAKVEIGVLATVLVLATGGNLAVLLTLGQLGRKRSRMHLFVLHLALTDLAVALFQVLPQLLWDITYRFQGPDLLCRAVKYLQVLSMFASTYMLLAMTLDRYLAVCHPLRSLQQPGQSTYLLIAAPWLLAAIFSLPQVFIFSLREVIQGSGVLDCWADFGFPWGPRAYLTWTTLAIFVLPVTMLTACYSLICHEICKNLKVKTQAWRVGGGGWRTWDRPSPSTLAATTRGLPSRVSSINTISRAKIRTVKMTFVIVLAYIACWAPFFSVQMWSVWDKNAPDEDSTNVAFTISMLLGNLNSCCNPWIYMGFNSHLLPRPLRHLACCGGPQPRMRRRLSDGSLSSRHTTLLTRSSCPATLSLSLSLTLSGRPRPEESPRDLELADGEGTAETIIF
Test: V1b receptor binding assay ([3H](Arg8)-vasopressin, crude membranes of CHO cells)
Conditions: 0.1 μmol/L test drug, V1b receptor binding assay; read-out: Rate of inhibition (V1b: % of inhibition)
Protocol: A summary of the methods is given below.
Each obtained homogenate was centrifuged for 20 minutes at 50,000×g and 4° C., the sediment was resuspended in a 50 mmol/L Tris hydrochloric acid buffer solution (pH7.4, containing 10 mmol/L magnesium chloride and 0.1% bovine serum albumin), which served as a crude membrane preparation. This crude membrane preparation was added with [^3H] (Arg^8) vasopressin (final concentration: 0.1 nmol/L to 0.4 nmol/L), and each test drug (final concentration: 0.1 nmol/L to lμmol/L or 0.01 nmol/L to 0.1 μmol/L) to 22° C. for 90 minutes. After the end of the reaction, the reaction solution was filtrated using a GF/C glass fiber filter, which had been presoaked in 0.3% polyethyleneimine for two hours. After the GF/C glass fiber filter was dried sufficiently, scintillator was added, and the radioactivity on the filter was measured using a liquid scintillation counter. Binding of [^3H] (Arg^8)-vasopressin in the presence of (Arg^8)-vasopressin, in the amounts of 0.1 μmol/L in the V1b receptor binding assay and 5 μmol/L in the V1a and V2 receptor binding assay, were taken as non-specific binding, and the value obtained by subtracting non-specific binding from the total binding in the absence (Arg^8)-vasopressin served as specific binding.
In addition, regarding the V1b receptor binding assay, the value obtained by, subtracting the amount of binding in the presence of 0.1 μmol/L test drug from the total amount of binding, divided by the amount of specific binding, served as the rate of inhibition (% of inhibition) of the test drug at the concentration tested.

COc1ccc(S(=O)(=O)N2C(=O)C(c3cc(OC)ccc3OC)(N3C[C@H](O)C[C@H]3C(=O)N(C)C)c3cc(Cl)ccc32)c(OC(F)(F)F)c1 (single isomer, unassigned) [Example 102]
inhibition at 0.1 µM: 102%

COC(=O)[C@H](C)OC1(c2ccccc2OC)C(=O)N(S(=O)(=O)c2ccc(OC)cc2OC(F)(F)F)c2ccc(Cl)cc21 (stereo partly drawn) [Example 80, Methyl (2S)-2-[(5-chloro-3-(2-methoxyphenyl)-1-{[4-methoxy-2-(trifluoromethoxy)phenyl]sulfonyl}-2-oxo-2,3-dihydro-1H-indol-3-yl)oxy]propanoate]
inhibition at 0.1 µM: 69%

COc1ccc(S(=O)(=O)N2C(=O)C(c3cc(C)ccc3OC)(N3CCN(c4ccncc4)CC3C(=O)N(C)C)c3cc(Cl)ccc32)c(OC(F)(F)F)c1 (stereo not drawn) [Example 112, 1-(5-chloro-3-(2-methoxy-5-methylphenyl)-1-{[4-methoxy-2-(trifluoromethoxy)phenyl]sulfonyl}-2-oxo-2,3-dihydro-1H-indol-3-yl)-N,N-dimethyl-4-pyridin-4-yl piperazine-2-carboxamide]
inhibition at 0.1 µM: 55%

COc1ccc(C2(N3CCCC[C@H]3C(=O)N(C)C)C(=O)N(S(=O)(=O)c3ccc(OC)cc3OC(F)(F)F)c3ccc(C)cc32)cc1 (single isomer, unassigned) [Example 96]
inhibition at 0.1 µM: 73%

COc1ccc(S(=O)(=O)N2C(=O)C(c3cccc4c3OCO4)(N3C[C@H](O)C[C@H]3C(=O)N(C)C)c3cc(C)ccc32)c(OC(F)(F)F)c1 (single isomer, unassigned) [Example 107]
inhibition at 0.1 µM: 102%

COc1ccc(S(=O)(=O)N2C(=O)C(c3cc(CC#N)ccc3OC)(N3C[C@H](O)C[C@H]3C(=O)N(C)C)c3cc(Cl)ccc32)c(OC(F)(F)F)c1 (single isomer, unassigned) [Example 236]
inhibition at 0.1 µM: 93%

COc1ccc(S(=O)(=O)N2C(=O)C(NCC(=O)N3CCN(c4ccncc4)CC3)(c3ccccc3OC)c3cc(Cl)ccc32)c(OC(F)(F)F)c1 (stereo not drawn) [Example 58, 5-chloro-3-(2-methoxyphenyl)-1-{[4-methoxy-2-(trifluoromethoxy)phenyl]sulfonyl}-3-{[2-oxo-2-(4-pyridin-4-ylpiperazin-1-yl)ethyl]amino}-1,3-dihydro-2H-indol-2-one]
inhibition at 0.1 µM: 77%

COc1ccc(S(=O)(=O)N2C(=O)C(c3cc(C(C)C)ccc3OC)(N3C[C@H](O)C[C@H]3C(=O)N(C)C)c3cc(Cl)ccc32)c(OC(F)(F)F)c1 (single isomer, unassigned) [Example 230]
inhibition at 0.1 µM: 101%

COc1ccc(S(=O)(=O)N2C(=O)C(c3cc(C)ccc3OC)(N3C[C@H](O)C[C@H]3C(=O)N(C)C)c3cc(Br)cnc32)c(OC)c1 (single isomer, unassigned) [Example 121]
inhibition at 0.1 µM: 47%

COc1ccc(S(=O)(=O)N2C(=O)C(c3cc(C)ccc3OC)(N3C[C@H](O)C[C@H]3C(=O)N(C)C)c3cc(Cl)ccc32)c(OCC(F)(F)F)c1 (single isomer, unassigned) [Example 171]
inhibition at 0.1 µM: 95%

COc1ccc(S(=O)(=O)N2C(=O)C(c3cccc(OC)c3OC)(N3C[C@H](O)C[C@H]3C(=O)N(C)C)c3cc(Cl)ccc32)c(OC(F)(F)F)c1 (single isomer, unassigned) [Example 240]
inhibition at 0.1 µM: 85%

COc1ccc(S(=O)(=O)N2C(=O)C(c3ccccc3OC)(N3C[C@H](F)C[C@H]3C(=O)N(C)C)c3cc(Cl)ccc32)c(OC(F)(F)F)c1 (single isomer, unassigned) [Example 7]
inhibition at 0.1 µM: 96%

COc1ccc(S(=O)(=O)N2C(=O)C(c3cc(C)cnc3OC)(N3C[C@H](O)C[C@H]3C(=O)N(C)C)c3cc(Cl)ccc32)c(OCC(F)(F)F)c1 (single isomer, unassigned) [Example 169]
inhibition at 0.1 µM: 93%

COc1ccc(S(=O)(=O)N2C(=O)C(c3ccccc3C)(N3C[C@H](O)C[C@H]3C(=O)N(C)C)c3cc(Br)ccc32)c(OC(F)(F)F)c1 (single isomer, unassigned) [Example 105]
inhibition at 0.1 µM: 95%

COc1ccc(S(=O)(=O)N2C(=O)C(c3cc(C#N)ccc3OC)(N3C[C@H](O)C[C@H]3C(=O)N(C)C)c3cc(Cl)ccc32)c(OC(F)(F)F)c1 (single isomer, unassigned) [Example 238]
inhibition at 0.1 µM: 89%

COc1ccc(S(=O)(=O)N2C(=O)C(c3cc(C)ccc3OC)(N3C[C@H](OCCC(N)=O)C[C@H]3C(=O)N(C)C)c3cc(Cl)ccc32)c(OC(F)(F)F)c1 (stereo partly drawn) [Example 144, (4R)-4-(3-amino-3-oxopropoxy)-1-(5-chloro-3-(2-methoxy-5-methylphenyl)-1-{[4-methoxy-2-(trifluoromethoxy)phenyl]sulfonyl}-2-oxo-2,3-dihydro-1H-indol-3-yl)-N,N-dimethyl-L-prolinamide]
inhibition at 0.1 µM: 95%

COc1ccc(S(=O)(=O)N2C(=O)C(c3cc(C)ccc3OC)(N3C[C@H](OCCCO)C[C@H]3C(=O)N(C)C)c3cc(Cl)ccc32)c(OC(F)(F)F)c1 (stereo partly drawn) [Example 139, (4R)-1-(5-chloro-3-(2-methoxy-5-methylphenyl)-1-{[4-methoxy-2-(trifluoromethoxy)phenyl]sulfonyl}-2-oxo-2,3-dihydro-1H-indol-3-yl)-4-(3-hydroxypropoxy)-N,N-dimethyl-L-prolinamide]
inhibition at 0.1 µM: 103%

COc1ccc(S(=O)(=O)N2C(=O)C(CC(=O)N3CCN(c4ccncc4)CC3)(c3ccccc3OC)c3cc(Cl)ccc32)c(OC(F)(F)F)c1 (stereo not drawn) [Example 43, 5-chloro-3-(2-methoxyphenyl)-1-{[4-methoxy-2-(trifluoromethoxy)phenyl]sulfonyl}-3-[2-oxo-2-(4-pyridin-4-ylpiperazin-1-yl)ethyl]-1,3-dihydro-2H-indol-2-one hydrochloride 1.5 hydrate]
inhibition at 0.1 µM: 92%

CNCc1ccc(OC)c(C2(N3C[C@H](O)C[C@H]3C(=O)N(C)C)C(=O)N(S(=O)(=O)c3ccc(OC)cc3OC(F)(F)F)c3ccc(Cl)cc32)c1 (stereo partly drawn) [Example 206, (4R)-1-(5-chloro-3-{2-methoxy-5-[(methylamino)methyl]phenyl}-1-{[4-methoxy-2-(trifluoromethoxy)phenyl]sulfonyl}-2-oxo-2,3-dihydro-1H-indol-3-yl)-4-hydroxy-N,N-dimethyl-L-prolinamide]
inhibition at 0.1 µM: 105%

COc1ccc(S(=O)(=O)N2C(=O)C(c3cc(CO)ccc3OC)(N3C[C@H](O)C[C@H]3C(=O)N(C)C)c3cc(Cl)ccc32)c(OC(F)(F)F)c1 (single isomer, unassigned) [Example 203]
inhibition at 0.1 µM: 87%

COc1ccc(S(=O)(=O)N2C(=O)C(c3cccc4c3OCC4)(N3C[C@H](O)C[C@H]3C(=O)N(C)C)c3cc(Cl)ccc32)c(OC(F)(F)F)c1 (single isomer, unassigned) [Example 89]
inhibition at 0.1 µM: 104%

COc1ccc(S(=O)(=O)N2C(=O)C(c3cc(CN4CCN(C(=O)OC(C)(C)C)CC4)ccc3OC)(N3C[C@H](O)C[C@H]3C(=O)N(C)C)c3cc(Cl)ccc32)c(OC(F)(F)F)c1 (single isomer, unassigned) [Example 201]
inhibition at 0.1 µM: 53%

COc1ccc(S(=O)(=O)N2C(=O)C(c3cc(OC)ccc3OC)(N3CCCC[C@H]3C(=O)N(C)C)c3cc(Cl)ccc32)c(OC(F)(F)F)c1 (single isomer, unassigned) [Example 117]
inhibition at 0.1 µM: 95%

COc1ccc(S(=O)(=O)N2C(=O)C(c3cccc4c3OCO4)(N3C[C@H](O)C[C@H]3C(=O)N(C)C)c3cc(Br)ccc32)c(OC(F)(F)F)c1 (single isomer, unassigned) [Example 92]
inhibition at 0.1 µM: 102%

From patent US8030499B2, “1,3-dihydro-2H-indole-2-one compound and pyrrolidine-2-one compound fused with aromatic heterocycle” (Taisho Pharmaceutical Co., Ltd., priority 2005, dated 2011)
